According to patent US4517004A, “Aryl phosphoric triamide and aryl phosphorodiamidate urease and nitrification inhibitors and urease and nitrification inhibited urea and reduced nitrogen based fertilizer compositions” (Allied Corporation, priority 1983, dated 1985):
Where two headings read alike, the source gives them in different places.

Columns and labels:
[1] = target: T1, jack bean urease (Sigma, Type IX) (Canavalia ensiformis, UniProt P07374); experiment: Efficacy test with commercial purified jack bean urease in homogeneous solution (modified Bremner procedure); type: biochemical; settings: read-out: % Inhibition 10^-6 M
T1 construct: purchased Sigma Type IX
Protocol: Efficacy tests were also conducted with jack bean urease. The procedure of Bremner (see L. A. Douglas, J. M. Bremner, Soil Biol. Biochem., 3, 859-62 (1970 and references therein) was modified by replacing the soil as the source of urease with commercial purified jack bean urease (Sigma, Type IX). The incubation then proceeds in homogeneous solution. The results are generally parallel to those obtained in the soil test of Example IV and are given in Table II.

[2] = tested on: urease in soil (Cazenovia silt loam; Plano silt loam); experiment: Urease inhibition efficacy test in soil (urea remaining after incubation); type: biochemical; settings: 40 micrograms compound per gram soil, 42.8 mg urea per 20 g soil, incubated 3 days at 25° C., triplicate; for % Inhibition 40 Micrograms per gram soil, Cazenovia pH 7.2: New York soil (Cazenovia silt loam)
Protocol: Efficacy tests were conducted to evaluate the efficacy of certain representative phosphoric triamide compounds of this invention as urease inhibitors in comparison with the known compound 4-aminophenylphosphoric triamide. The inhibition tests were run in a New York soil (Cazenovia silt loam, pH 7.0), or in Wisconsin soil (Plano silt loam). Evaluations (run in triplicate) consisted of applying 800 micrograms of the test compound in 5 mL of water and 42.8 mg of urea in 1 mL of water to 20 g of air-dry soil in a glass bottle. The bottle was capped with perforated aluminum foil and incubated at 25° C. for three days prior to extraction with 100 mL of a 2M KCl solution containing 0.5 mg of phenylmercuric acetate. The extracts were then analyzed for remaining urea using an autoanalyzer. Percent inhibition was calculated as [formula] where A is urea recovered from unincubated sample (urea added to soil and immediately extracted); B is urea recovered from inhibited sample; and C is urea recovered from the control (uninhibited sample).

soil nitrification = experiment: Nitrification inhibition efficacy test in Cazenovia silt loam soil (nitrate formed from diammonium phosphate); settings: Cazenovia silt loam pH 7.3
Protocol: Efficacy tests were conducted to evaluate the efficacy of certain representative phosphoric triamide compounds as nitrification inhibitors. All compounds were evaluated in Cazenovia silt loam soil (pH 7.3). The evaluations consisted of applying either simultaneously (to) or after 14 days (t14) a solution of 6.00 mg (300 μg/g soil) at diammonium phosphate in 1 mL of water to triplicate 20 g samples of air dry soil contained in 250 mL square glass bottles that had been treated with a solution of either 0 or 0.800 mg (40 μg/g soil) of the test compound in 5 mL of water. Each bottle was capped with perforated aluminum foil, incubated for 14 days at 25° C. after diammonium phosphate application, and then extracted with 100 mL of 2M potassium chloride containing 0.5 mg (5 mg/L) of phenylmercuric acetate. Each extract was allowed to settle, and an aliquot was frozen and then analyzed for nitrate using an autoanalyzer. The percent inhibition obtained during the incubation was calculated by the formula: [formula] where A is the nitrate recovered from unincubated soil before diammonium phosphate addition; B is nitrate recovered from uninhibited soil; and C is nitrate recovered from inhibited soil.

[3] = compound at 10^-6 M, purified jack bean urease, homogeneous solution

T1 sequence (P07374 whole entry, looked up): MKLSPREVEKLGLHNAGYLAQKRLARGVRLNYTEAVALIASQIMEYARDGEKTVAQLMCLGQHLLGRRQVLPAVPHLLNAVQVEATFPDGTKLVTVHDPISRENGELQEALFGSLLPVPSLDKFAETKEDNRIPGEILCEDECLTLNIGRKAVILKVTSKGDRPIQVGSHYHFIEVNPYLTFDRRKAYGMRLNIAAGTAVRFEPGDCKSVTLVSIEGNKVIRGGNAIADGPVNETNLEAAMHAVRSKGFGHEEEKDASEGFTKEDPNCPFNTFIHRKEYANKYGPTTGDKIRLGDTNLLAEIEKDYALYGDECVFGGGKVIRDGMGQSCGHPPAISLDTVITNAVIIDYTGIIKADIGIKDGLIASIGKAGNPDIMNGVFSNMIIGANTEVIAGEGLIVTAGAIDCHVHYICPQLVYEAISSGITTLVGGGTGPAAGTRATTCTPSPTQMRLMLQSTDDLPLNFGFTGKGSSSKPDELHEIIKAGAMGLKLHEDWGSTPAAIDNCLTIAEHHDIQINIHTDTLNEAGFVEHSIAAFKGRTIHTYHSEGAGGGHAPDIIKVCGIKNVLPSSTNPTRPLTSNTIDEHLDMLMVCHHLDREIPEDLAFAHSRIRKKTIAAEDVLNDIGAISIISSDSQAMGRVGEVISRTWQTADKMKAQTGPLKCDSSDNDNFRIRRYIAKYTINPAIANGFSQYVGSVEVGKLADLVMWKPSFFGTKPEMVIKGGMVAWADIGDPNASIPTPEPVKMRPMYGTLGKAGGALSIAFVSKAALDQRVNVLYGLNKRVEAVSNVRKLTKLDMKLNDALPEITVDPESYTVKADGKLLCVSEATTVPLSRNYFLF

## Nc1ccc(NP(N)(N)=O)cc1 [4-Aminophenylphosphoric triamide, 4-aminophenylphosphoric triamide, reference compound]
[1]
  inhibition at 1 µM: 0%
[2]
  % Inhibition 40 Micrograms per gram soil, Cazenovia pH 7.2: 55%

## Nc1ccc(OP(N)(N)=O)cc1 [4-Aminophenylphosphorodiamidate, 4-aminophenylphosphorodiamidate]
[1]; [3]
  inhibition at 1 µM: 80%
[2]
  % Inhibition 40 Micrograms per gram soil, Cazenovia pH 7.2: 91%

## CN(c1ccc(O)cc1)P(N)(N)=O [N-(Methyl)-N-(4-hydroxyphenyl) Phosphoric triamide]
[2]
  % Inhibition 40 Micrograms per gram soil, Cazenovia pH 7.2: 87%
[2]; Wisconsin soil (Plano silt loam), pH 5.4
  % Inhibition 40 Micrograms per gram soil, Wisconsin pH 5.4: 33%

## CC(C)(C)c1cc(OP(N)(N)=O)ccc1O [Phosphorodiamidic Acid 3-(1',1'-dimethylethyl)-4-hydroxyphenyl Ester]
Soil nitrification; diammonium phosphate (300 μg/g soil) applied 14 days after compound (t14), 14 days at 25° C. after application
  % Inhibition at 40 μg per gram of soil, t14: 0%
Soil nitrification; diammonium phosphate (300 μg/g soil) applied simultaneously with compound (t0), 14 days at 25° C.
  % Inhibition at 40 μg per gram of soil, t0: 39%
[1]; [3]
  inhibition at 1 µM: 29%
[2]
  % Inhibition 40 Micrograms per gram soil, Cazenovia pH 7.2: 87%
